Test results reported in the supplement of paper PMC10307832.

Assays:
Assay in all cases: relative viability (nuclei count vs DMSO), 5 days (fraction); higher = more cells survive
MLN4924 + Linsitinib = compound: NS(=O)(=O)OC[C@@H]1C[C@@H](n2ccc3c(N[C@H]4CCc5ccccc54)ncnc32)C[C@@H]1O [MLN4924] + C[C@]1(O)C[C@@H](c2nc(-c3ccc4ccc(-c5ccccc5)nc4c3)c3c(N)nccn32)C1 [Linsitinib] (partner 1 µM)
In short: (§1)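 Dosing by pin tool came one day after lung cancer cell lines were seeded in 1536-well plates, using either one drug or a fixed anchor-drug dose plus five library-drug doses (not always all listed) in √10 steps. After 5 days, nuclei were counted on 4× images. Relative viability is treated-well nuclei count divided by vehicle-well nuclei count, and values are medians of duplicate plates.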

MLN4924 + Decitabine = compound: NS(=O)(=O)OC[C@@H]1C[C@@H](n2ccc3c(N[C@H]4CCc5ccccc54)ncnc32)C[C@@H]1O [MLN4924] + Nc1ncn([C@H]2C[C@H](O)[C@@H](CO)O2)c(=O)n1 [Decitabine] (partner 2 µM)
In short: as §1

GSK126 + OSI-027 = compound: CC[C@H](C)N1C=C(C2=C(C=C(C=C21)C3=CN=C(C=C3)N4CCNCC4)C(=O)NCC5=C(C=C(NC5=O)C)C)C [GSK126] + COc1cccc2cc(-c3nc([C@H]4CC[C@H](C(=O)O)CC4)n4ncnc(N)c34)[nH]c12 [OSI-027] (partner 0.5 µM)
In short: as §1

Carboplatin + Tozasertib = compound: C1CC(C1)(C(=O)O)C(=O)O.[NH2-].[NH2-].[Pt+2] [Carboplatin] + Cc1cc(Nc2cc(N3CCN(C)CC3)nc(Sc3ccc(NC(=O)C4CC4)cc3)n2)n[nH]1 [Tozasertib] (partner 0.1 µM)
In short: as §1

| Cell Line | relative viability (MLN4924 + Linsitinib; first compound 0.04 µM) | relative viability (MLN4924 + Linsitinib; first compound 0.1265 µM) | relative viability (MLN4924 + Linsitinib; first compound 0.4 µM) | relative viability (MLN4924 + Linsitinib; first compound 1.265 µM) | relative viability (MLN4924 + Linsitinib; first compound 4 µM) | relative viability (MLN4924 + Decitabine; first compound 0.04 µM) | relative viability (MLN4924 + Decitabine; first compound 0.1265 µM) | relative viability (MLN4924 + Decitabine; first compound 0.4 µM) | relative viability (MLN4924 + Decitabine; first compound 1.265 µM) | relative viability (MLN4924 + Decitabine; first compound 4 µM) | relative viability (GSK126 + OSI-027; first compound 0.08 µM) | relative viability (GSK126 + OSI-027; first compound 0.253 µM) | relative viability (GSK126 + OSI-027; first compound 0.8 µM) | relative viability (GSK126 + OSI-027; first compound 2.53 µM) | relative viability (GSK126 + OSI-027; first compound 8 µM) | relative viability (Carboplatin + Tozasertib; first compound 0.08 µM) | relative viability (Carboplatin + Tozasertib; first compound 0.253 µM) | relative viability (Carboplatin + Tozasertib; first compound 0.8 µM) | relative viability (Carboplatin + Tozasertib; first compound 2.53 µM) | relative viability (Carboplatin + Tozasertib; first compound 8 µM) |
| --- | --- | --- | --- | --- | --- | --- | --- | --- | --- | --- | --- | --- | --- | --- | --- | --- | --- | --- | --- | --- |
| NCI-H358 | 0.918 | 1.06 | 0.304 | 0.183 | 0.181 | 0.2 | 0.206 | 0.183 | 0.111 | 0.148 | 1 | 0.85 | 0.812 | 0.904 | 0.897 | 0.113 | 0.101 | 0.107 | 0.108 | 0.114 |
| NCI-H2342 |  |  |  |  |  | 0.695 | 0.75 | 0.718 | 0.643 | 0.468 | 0.678 | 0.616 | 0.622 | 0.626 | 0.669 | 0.555 | 0.529 | 0.502 | 0.406 | 0.547 |
| NCI-H2087 | 0.775 | 0.776 | 0.311 | 0.172 | 0.187 | 0.197 | 0.248 | 0.253 | 0.0811 | 0.061 | 0.674 | 0.466 | 0.595 | 0.706 | 0.786 | 0.272 | 0.242 | 0.23 | 0.272 | 0.226 |
| NCI-H596 | 1.2 | 1.3 | 0.744 | 0.853 | 0.304 | 1.09 | 1.1 | 0.933 | 0.97 | 0.727 | 0.895 | 0.701 | 0.798 | 0.754 | 0.714 | 0.985 | 0.98 | 0.907 | 0.77 | 0.491 |
| ChaGo-K-1 |  |  |  |  |  | 0.409 | 0.276 | 0.297 | 0.2 | 0.184 | 0.609 | 0.611 | 0.562 | 0.545 | 0.544 | 0.231 | 0.224 | 0.215 | 0.213 | 0.192 |
| SW 1573 | 0.928 | 0.766 | 0.389 | 0.0982 | 0.0789 | 0.525 | 0.313 | 0.158 | 0.0741 | 0.0974 | 0.959 | 0.656 | 0.665 | 0.625 | 0.846 | 0.2 | 0.191 | 0.19 | 0.173 | 0.207 |
| LCLC-97TM1 | 0.191 | 0.23 | 0.156 | 0.103 | 0.131 | 0.188 | 0.156 | 0.133 | 0.0597 | 0.0565 | 0.503 | 0.421 | 0.546 | 0.606 | 0.635 | 0.235 | 0.292 | 0.249 | 0.192 | 0.212 |
| HCC-366 | 0.838 | 0.933 | 0.513 | 0.0247 | 0.0197 | 0.335 | 0.338 | 0.279 | 0.164 | 0.0343 | 1.2 | 0.754 | 0.868 | 0.927 | 0.847 | 0.13 | 0.139 | 0.111 | 0.1 | 0.0814 |
| HARA | 0.568 | 0.455 | 0.481 | 0.092 | 0.0886 | 0.496 | 0.379 | 0.379 | 0.203 | 0.156 | 0.543 | 0.541 | 0.476 | 0.466 | 0.392 | 0.146 | 0.122 | 0.09 | 0.11 | 0.11 |
| NCI-H1915 | 1.05 | 0.82 | 0.898 | 0.213 | 0.222 | 0.271 | 0.262 | 0.235 | 0.202 | 0.142 | 0.609 | 0.622 | 0.704 | 0.655 | 0.594 | 0.494 | 0.455 | 0.411 | 0.364 | 0.331 |
| NCI-H1650 |  |  |  |  |  | 0.371 | 0.388 | 0.252 | 0.175 | 0.193 | 0.834 | 0.594 | 0.703 | 0.684 | 0.681 | 0.473 | 0.342 | 0.427 | 0.348 | 0.373 |
| NCI-H522 |  |  |  |  |  | 0.626 | 0.598 | 0.571 | 0.401 | 0.406 | 0.651 | 0.731 | 0.779 | 0.638 | 0.686 | 0.63 | 0.604 | 0.547 | 0.525 | 0.528 |
| Calu-6 | 0.946 | 0.708 | 0.317 | 0.101 | 0.109 |  |  |  |  |  |  |  |  |  |  |  |  |  |  |  |
| IA-LM | 0.252 | 0.197 | 0.155 | 0.0583 | 0.0889 |  |  |  |  |  |  |  |  |  |  |  |  |  |  |  |
| CAL-12T | 0.717 | 0.636 | 0.237 | 0.135 | 0.143 |  |  |  |  |  | 0.78 | 0.576 | 0.767 | 0.67 | 0.819 | 0.338 | 0.289 | 0.329 | 0.413 | 0.382 |
| EBC-1 | 0.812 | 0.628 | 0.182 | 0.102 | 0.13 |  |  |  |  |  |  |  |  |  |  |  |  |  |  |  |
| NCI-H2170 |  |  |  |  |  | 0.444 | 0.249 | 0.273 | 0.167 | 0.144 | 0.809 | 0.817 | 0.712 | 0.749 | 0.737 | 0.732 | 0.687 | 0.642 | 0.71 | 0.535 |
| SW 900 |  |  |  |  |  |  | 0.427 | 0.344 | 0.27 | 0.211 | 0.605 | 0.505 | 0.502 | 0.473 | 0.466 | 0.682 | 0.479 | 0.56 | 0.399 | 0.314 |
| NCI-H1792 | 0.548 | 0.664 | 0.804 | 0.184 | 0.124 | 0.72 | 0.556 | 0.571 | 0.377 | 0.219 | 0.643 | 0.796 | 0.679 | 0.786 | 0.675 |  |  |  |  |  |
| NCI-H1703 | 0.235 | 0.241 | 0.157 | 0.111 | 0.146 |  |  |  |  |  |  |  |  |  |  |  |  |  |  |  |
| NCI-H1563 | 1.73 | 1.18 | 0.753 | 0.606 | 0.6 |  |  |  |  |  | 0.789 | 0.785 | 0.863 | 0.803 | 0.753 |  |  |  |  |  |
| NCI-H1623 |  |  |  |  |  |  |  |  |  |  | 0.414 | 0.473 | 0.425 | 0.504 | 0.401 | 0.445 | 0.446 | 0.484 | 0.449 | 0.402 |
